Common to all, as to format: in vivo
One data set has as its system Clarias gariepinus. Nature of the data set: Aquaculture screening experiment, African catfish growth on arginine-limited basal diet. As to conditions: after four months. The text has this:
(§1) Nearly all of the […] species relevant to aquaculture belong to three supra-orders: Ostariophysi ([…], catfish, and allies), Protacanthopterygii (e.g. pike, trouts and salmon), and Acanthopterygii (around 50% of all fish species, including all […], flatfish, tuna, etc.). In order to cover as much of the phylogenetic range as possible, fish species were chosen from each of these supra-orders (Ostariophysi; Clarias gariepinus, Protacanthopterygii; Oncorhychus mykiss, Acanthopterygii; Oreochromis niloticus). Additionally, kuruma shrimp (Marsupenaeus japonicus) was chosen as a representative species of crustacean due to its significance in the high-end market. At the end of the experiment, the individual weights were recorded and the data analyzed statistically. All experiments started with young fry or postlarvae. All species except trout were housed during the experiments in parallel recirculation systems of fresh water. Marsupenaeus japonicus shrimp were maintained in seawater. Oreochromis niloticus and Clarias gariepinus were housed in 200-L tanks filtered by a commercial pond filter. Trout were housed in a smaller system composed of 70-l tanks connected in series to account for the species' higher oxygen demand and preference for stronger current. Water quality (oxygen levels, nitrite, and nitrate) was monitored weekly. Partial water replacements were performed if the desired levels were exceeded. (<3 mg O2/l, detectable nitrite, >25 mg/l nitrate). In order to examine the efficiency of dipeptide products after as feed supplements for aquaculture, β-L-aspartyl-arginine as obtained in Example 1 was used in combination with basal arginine-limited diets. The latter diets were supplemented with the said dipeptide products to a concentration of 1.25 or 2.5% (wt/wt), or with corresponding isonitrogenous concentrations of an aspartic acid-arginine mixture (to determine the effect of free amino acids alone). Basal diets were formulated from individual components in common use in the aquaculture feed industry to ensure realistic conditions. […]

For another data set, the system named is Oreochromis niloticus. Nature of the data set: Aquaculture screening experiment, Tilapia growth on arginine-limited basal diet. Particulars: after two months.
Text: as §1, with “[…] Basal diet composition for Tilapia and Kuruma shrimp contained a calculated arginine content of about 1.35% (of diet) which is lower than” for “In order to examine”, “minimum requirements” for “efficiency”, “both Tilapia and Kuruma shrimp: corn 40%, soybean meal 21%, rice polishings 14%, gluten 11%, wheat bran 5%, herring meal 5%, monocalcium phosphate 0.8%, limestone 0.7%, L-lysine HCl 0.7%, fish oil 0.5%, vitamin mineral premix 0.3%, sodium bicarbonate 0.15%, salt 0.15%, pellet binder 0.05%.” for “dipeptide products after as feed supplements for aquaculture, β-L-aspartyl-arginine as obtained in Example 1 was used in combination with basal arginine-limited diets. The latter diets were supplemented with the said dipeptide products to a concentration of 1.25 or 2.5% (wt/wt), or with corresponding isonitrogenous concentrations of an aspartic acid-arginine mixture (to determine the effect of free amino acids alone). Basal diets were formulated from individual components in common use in the aquaculture feed industry to ensure realistic conditions.”

The next data set deals with Oncorhynchus mykiss. Nature of the data set: Aquaculture screening experiment, trout growth on arginine-limited basal diet. As to conditions: after four months.
Text: as §1

Data set [1] concerns Atlantic salmon (Salmo salar L.). Nature of the data set: Salmon nutrition experiment (bioavailability, arginine retention, growth, safety). The text has this: The objective of the experiment was to examine the in vivo bioavailability of the above described “β-L-aspartyl-R” dipeptides in fish for the first time and consequently to determine their applicability as a substitute of free amino acids sources in Atlantic salmon (Salmo salar L.) nutrition. Therefore, varying supplementation levels of β-L-aspartyl-L-arginine in contrast to a mixture of free amino acids L-arginine and L-aspartic acid were compared.
315 Atlantic salmon (96.33 g±11.47 g; Danish Salmon AS, Hirtshals, DK) were acclimatized for 14 d in the experimental rearing system. The tanks of the system were part of a recirculation system (3.5 m^3 water volume, turnover rate 2 h^−1). The water purification system consisted of a mechanical filter, a moving bed filter, and a protein skimmer. Water quality parameters were maintained within a safe range for the fish (7.2-7.6 pH; GMH 3530, Digital pH-/mV-/Thermometer, Greisinger electronic, D; 22.5±0.3° C., 8.5±0.4 mg/l O2; Handy Polaris; Oxy-Guard International A/S, Birkerod, Denmark; <0.4 mg/l NH4—N; <0.24 mg/l NO2—N; Microquant test kit for NH4 and NO2; Merck KgaA, Darmstadt, Germany). The light conditions were set to 14 h/10 h light/dark cycle. During acclimatization fish were fed a commercial salmon feed (Aller Gold 4 mm; AllerAqua A/S, Christiansfeld, Denmark). The fish were reared in 150 l aquaria. Triplicate fish groups (3×15) were fed to apparent satiation twice a day over a period of 10 weeks.
In order to fulfill the nutritional demands of Atlantic salmon (except for arginine content), the different concentrations of the test substances were added to a basal diet which was produced with the following common ingredients used for fish nutrition: Fish meal (Clupea sp.) 9.91%, Blood meal 1.93%, Casein 3.05%, Corn gluten 20.80%, Wheat gluten 22.09%, Biolysine™ 1.48%, Wheat starch 25.43%, Fish oil 11.13%, Ca2PO4 0.46%, Vit/min premix 0.93%, TiO2 0.93%, and Carboxymethyl cellulose ad 100% (after adding the test supplements). The experiment was carried out with the resulting 7 dietary treatments:
Samples of all experimental groups were analyzed for arginine retention in the lab of LUFA in Kiel. […] Crude protein content (N×6.25) was determined by the Kjeldahl method, crude lipid content after hydrolysis with hydrochloric acid followed by a petroleum ether extraction using a Soxhlet extraction system, DM after drying at 103° C. until constant weight, and ash content after 4 h incineration at 550° C. in a combustion oven (P300; Nabertherm, Lilienthal, Germany). Furthermore, gross energy was measured in a bomb calorimeter (C 200; IKA, Staufen, Germany).
The statistical analyses were performed using SPSS 21.0 for Windows (SPSS Inc., Chicago, U.S.). […] Data were analyzed for variance homogeneity by Levene (p<0.05). […]

In another data set the test system is Marsupenaeus japonicus. Nature of the data set: Aquaculture screening experiment, kuruma shrimp growth on arginine-limited basal diet. Particulars: after two months. The text has this:
Nearly all of the […] species relevant to aquaculture belong to three supra-orders: Ostariophysi ([…], catfish, and allies), Protacanthopterygii (e.g. pike, trouts and salmon), and Acanthopterygii (around 50% of all fish species, including all […], flatfish, tuna, etc.). In order to cover as much of the phylogenetic range as possible, fish species were chosen from each of these supra-orders (Ostariophysi; Clarias gariepinus, Protacanthopterygii; Oncorhychus mykiss, Acanthopterygii; Oreochromis niloticus). Additionally, kuruma shrimp (Marsupenaeus japonicus) was chosen as a representative species of crustacean due to its significance in the high-end market. At the end of the experiment, the individual weights were recorded and the data analyzed statistically. All experiments started with young fry or postlarvae. […] Water quality (oxygen levels, nitrite, and nitrate) was monitored weekly. […] Basal diet composition for Tilapia and Kuruma shrimp contained a calculated arginine content of about 1.35% (of diet) which is lower than the minimum requirements of both Tilapia and Kuruma shrimp: corn 40%, soybean meal 21%, rice polishings 14%, gluten 11%, wheat bran 5%, herring meal 5%, monocalcium phosphate 0.8%, limestone 0.7%, L-lysine HCl 0.7%, fish oil 0.5%, vitamin mineral premix 0.3%, sodium bicarbonate 0.15%, salt 0.15%, pellet binder 0.05%. […]

Structures are written as SMILES.

On to `N=C(N)NCCC[C@H](NC(=O)C[C@H](N)C(=O)O)C(=O)O` [Asp-Arg, β-L-aspartyl-L-arginine], for which the “mean (wt in g)” value in the data set on Clarias gariepinus (1.25% (wt/wt) supplement in basal diet) came out at 6.63 g; with Clarias gariepinus (2.5% (wt/wt) supplement in basal diet), 8.42 g; in the data set with Oreochromis niloticus (1.25% supplement in basal diet), 1.84 g; in the data set on Oreochromis niloticus (2.5% supplement in basal diet) it was 2.03 g; with Oncorhynchus mykiss (1.25% supplement in basal diet), 13.63 g; in the data set with Oncorhynchus mykiss (2.5% supplement in basal diet) it was 15.33 g. Besides, the entries for the “average final weight, % of the control” value in the data set on Clarias gariepinus (addition of dipeptides) and in the data set with Oncorhynchus mykiss (feed containing 2.5% dipeptides) were “around 144 % of the control” and “around 115 % of the control”, respectively. Also, the “final weight, % of the control” value in the data set on Oreochromis niloticus (feed supplemented with 2.5% dipeptide) was “over 120 % of the control”. Also, the “safety (mortalities, behavior, postmortem inspection, tissue and blood analysis)” value in data set [1] (Atlantic salmon, 0.2-0.6% in diet, 10 weeks) is given as “safe for fish”. For the same compound, the “weight gain at the highest level of supplementation” value in data set [1] (Atlantic salmon, 0.6% supplementation, 10 weeks (FIG. 1)) was “not seen”. In data set [1] (Atlantic salmon, 10 weeks, compared to the free amino acid groups), the “whole body protein level” value is on record as “higher body protein level”. The “bioavailability of the dipeptide form versus the free form” value in data set [1] (in vivo) is “five-fold better”. The “average weight versus amino acid feeding and control” value in the data set on Marsupenaeus japonicus (1.25%) is “higher than that of the amino acid feeding and that of the control group”. Further, the mean in the data set on Marsupenaeus japonicus (1.25% supplement in basal diet, average weight) turned out to be 0.35 g.

Values taken from patent US10939692B2, “Method for culturing aquatic animals with aspartyl-dipeptides” (Cysal GmbH, priority 2015, dated 2021).
